Test [1] deals with T1, 5-HT2C (Homo sapiens, UniProt P28335).
T1 construct: expressed in transfected cells; the paragraph before it names a CHO-K1-mt aequorin Gα16 cell line
T1 sequence (P28335 33-458): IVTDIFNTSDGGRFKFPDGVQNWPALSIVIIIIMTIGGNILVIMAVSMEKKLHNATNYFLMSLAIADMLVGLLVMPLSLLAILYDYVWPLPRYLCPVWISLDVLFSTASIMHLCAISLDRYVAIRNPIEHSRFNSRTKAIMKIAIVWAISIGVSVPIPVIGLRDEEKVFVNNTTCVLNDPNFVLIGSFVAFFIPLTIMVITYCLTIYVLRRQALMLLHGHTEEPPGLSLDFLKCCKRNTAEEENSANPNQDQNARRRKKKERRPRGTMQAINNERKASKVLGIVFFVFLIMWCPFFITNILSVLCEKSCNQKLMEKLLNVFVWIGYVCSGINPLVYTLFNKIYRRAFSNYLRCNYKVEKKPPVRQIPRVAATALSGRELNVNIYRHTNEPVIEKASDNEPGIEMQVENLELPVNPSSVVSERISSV
Put plainly: 5-HT2C pharmacological screening by FLIPR assay in agonist mode. The format is cell-based.

Test [2] concerns the target T2, 5-HT2A (Homo sapiens, UniProt P28223).
T2 construct: expressed in transfected cells; the paragraph before it names a CHO-K1-mt aequorin Gα16 cell line
Put plainly: cell-based. The note with it: FLIPR calcium assay, agonist mode.

Test [3] deals with T3, 5-HT2B (Homo sapiens, UniProt P41595).
T3 construct: expressed in transfected cells; the paragraph before it names a CHO-K1-mt aequorin Gα16 cell line
T3 sequence (P41595 whole entry): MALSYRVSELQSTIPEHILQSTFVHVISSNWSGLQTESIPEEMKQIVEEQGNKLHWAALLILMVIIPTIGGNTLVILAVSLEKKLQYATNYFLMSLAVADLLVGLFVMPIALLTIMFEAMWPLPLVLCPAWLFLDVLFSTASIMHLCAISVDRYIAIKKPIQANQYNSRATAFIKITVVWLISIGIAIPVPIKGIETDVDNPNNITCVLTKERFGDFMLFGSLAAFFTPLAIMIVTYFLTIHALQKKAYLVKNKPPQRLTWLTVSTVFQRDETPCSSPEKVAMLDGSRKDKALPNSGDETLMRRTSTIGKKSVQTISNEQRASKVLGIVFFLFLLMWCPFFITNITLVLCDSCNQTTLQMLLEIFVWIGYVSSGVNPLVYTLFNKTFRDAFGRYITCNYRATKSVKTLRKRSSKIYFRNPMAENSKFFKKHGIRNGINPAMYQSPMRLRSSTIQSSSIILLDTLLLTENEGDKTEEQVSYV
Put plainly: cell-based. The note with it: FLIPR calcium assay, agonist mode.

[4] abbreviates: FLIPR calcium assay, agonist mode, approximate values, read-out: 5-HT2C, (EC50, % max activity).
The mark [5] stands for this setting: FLIPR calcium assay, agonist mode, class symbols, read-out: 5-HT2C (EC50, % max activity).
Where [6] appears, read: 5-HT2A (EC50, % max activity), class symbols.
Setting [7] is: 5-HT2A, (EC50, % max activity), approximate values.
Setting [8] is: 5-HT2B (EC50, % max activity), class symbols.
[9] abbreviates: 5-HT2B, (EC50, % max activity), approximate values.
Setting [10] is: class symbols, read-out: 5-HT2A (EC50, % max activity).
Where [11] appears, read: class symbols, read-out: 5-HT2B (EC50, % max activity).

pEC50: −log10 of the molar value. Where two headings read alike, the source gives them in different places.

T2 sequence (P28223 whole entry): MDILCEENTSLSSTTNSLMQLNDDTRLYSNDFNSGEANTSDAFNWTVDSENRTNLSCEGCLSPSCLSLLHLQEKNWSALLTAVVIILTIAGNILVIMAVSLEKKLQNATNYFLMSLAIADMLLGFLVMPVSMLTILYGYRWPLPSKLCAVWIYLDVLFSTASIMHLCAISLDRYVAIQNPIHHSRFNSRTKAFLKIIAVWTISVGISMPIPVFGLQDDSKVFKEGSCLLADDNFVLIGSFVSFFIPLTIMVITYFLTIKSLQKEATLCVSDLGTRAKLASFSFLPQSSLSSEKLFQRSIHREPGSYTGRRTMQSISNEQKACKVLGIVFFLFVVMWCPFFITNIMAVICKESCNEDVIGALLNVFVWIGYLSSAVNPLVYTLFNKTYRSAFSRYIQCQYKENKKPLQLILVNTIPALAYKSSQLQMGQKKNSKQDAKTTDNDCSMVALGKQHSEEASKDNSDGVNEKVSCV

As for `FC1(F)CCN(c2cnc3c(n2)CCNCC3)CC1` [Example 2, 2-(4,4-difluoropiperidin-1-yl)-6,7,8,9-tetrahydro-5H-pyrazino[2,3-d]azepine], the negative-log EC50 (pEC50) is about 6.70 in test [1] (setting [4]); over 6.70 in test [1] (setting [5]); 6.00 to 6.70 in test [2] (setting [6]); about 6.05 in test [2] (setting [7]); 5.22 to 6.00 in test [3] (setting [8]); about 5.40 in test [3] (setting [9]).

On to `c1nc2c(nc1N1CCCC1)CCNCC2` [Example 16, 2-(pyrrolidin-1-yl)-6,7,8,9-tetrahydrahydro-5H-pyrazino[2,3-d]azepine], for which the pEC50 was under 5.22 in test [2] (setting [10]) and 6.00 to 6.70 in test [3] (setting [11]).

On to `FC1CCN(c2cnc3c(n2)CCNCC3)CC1` [Example 4, 2-(4-fluoropiperidin-1-yl)-6,7,8,9-tetrahydro-5H-pyrazino[2,3-d]azepine], for which the negative-log EC50 (pEC50) was 5.22 to 6.00 in test [2] (setting [10]) and 6.00 to 6.70 in test [3] (setting [11]).

Regarding `Nc1cnc2c(n1)CCNCC2` [Example 19, 6,7,8,9-tetrahydro-5H-pyrazino[2,3-d]azepin-2-amine], the negative logarithm of the EC50 (pEC50) in test [2] (setting [10]) and in test [3] (setting [11]) was under 5.22 in each case.

For `CN(C)c1cnc2c(n1)CCNCC2` [Example 15, N,N-dimethyl-6,7,8,9-tetrahydro-5H-pyrazino[2,3-d]azepin-2-amine], the pEC50 in test [2] (setting [10]) is under 5.22; in test [3] (setting [11]) it was 6.00 to 6.70.

Regarding `c1ccc(COc2cnc3c(n2)CCNCC3)cc1` [Example 18, 2-(benzyloxy)-6,7,8,9-tetrahydro-5H-pyrazino[2,3-d]azepine], the pEC50 in test [2] (setting [6]) was under 5.22; in test [3] (setting [8]), over 6.70.

Consider `FC1CN(c2cnc3c(n2)CCNCC3)C1` [Example 17, 2-(3-fluoroazetidin-1-yl)-6,7,8,9-tetrahydro-5H-pyrazino[2,3-d]azepine], for which the pEC50 in test [2] (setting [10]) and in test [3] (setting [11]) was under 5.22 throughout.

Take `c1nc2c(nc1N1CCCOCC1)CCNCC2` [Example 1, 4-(6,7,8,9-tetrahydro-5H-pyrazino[2,3-d]azepin-2-yl)-1,4-oxazepane]: the pEC50 was about 7.00 in test [1] (setting [4]); over 6.70 in test [1] (setting [5]); 5.22 to 6.00 in test [2] (setting [6]); about 5.70 in test [2] (setting [7]); under 5.22 in test [3] (setting [8]); under 4.52 in test [3] (setting [9]).

Consider `CN1CCc2[nH]c3ncccc3c2CC1` [Example 22, 7-methyl-5,6,7,8,9,10-hexahydropyrido[3′,2′:4,5]pyrrolo[2,3-d]azepine], for which the pEC50 was under 5.22 in test [1] (5-HT2C (EC50, % max activity, FLIPR calcium assay, agonist mode), class symbols); under 5.22 in test [2] (setting [6]); under 5.22 in test [3] (setting [8]).

Take `Clc1cnc2c(n1)CCNCC2` [Example 20, 2-chloro-6,7,8,9-tetrahydro-5H-pyrazino[2,3-d]azepine]: the pEC50 in test [2] (setting [6]) and in test [3] (setting [8]) was under 5.22 each time.

The term pEC50 denotes the negative decadic logarithm of the EC50, by convention in mol/L.

The values above are taken from US20240182480A1, “5-HT2A AND/OR 5-HT2C RECEPTOR AGONISTS” (priority 2021, published 2024).
